Reference: patent US11576978B2, “Hemoglobin-based therapeutic agents” (priority 2019, dated 2023)

How the values were obtained:
cancer cell lines = experiment: MTT cytotoxicity assay on cancer cell lines; assay type: cell-based; conditions: various cancer cells
Description: Cancer cells are cultured in medium (Invitrogen) with 10% Fetal bovine serum (FBS), 100 U/mL penicillin and 100 μg/mL streptomycin at 37° C. For normoxic condition, cells are incubated with ambient O2 concentration and 5% CO2, for hypoxic condition, cells are incubated with 0.1-0.5% O2 (Quorum FC-7 automatic CO2/O2/N2 gas mixer) and 5% CO2.
Cell viability is measured using a 3-(4,5-dimethylthiazol-2-yl)-2,5-diphenyltetrazolium bromide (MTT) proliferation assay. Briefly, cancer cell lines (e.g. HCT116, 4T1, and SMMC7721) are seeded in a 96-well flat-bottomed microplate and cultured in 100 μL growth medium at 37° C. and 5% CO2 for 24 h. Cell culture medium in each well is then replaced by 100 μL cell growth medium, containing either no drug, DM1 alone or modified hemoglobin-based cytotoxic agents at series concentrations. Incubation of drugs for 24 h, cell culture medium containing drugs is replaced by 100 μL MTT labeling reagent (1 mg/mL in PBS solution) in each well and incubation for further 4 h at 37° C. The medium is removed gently, and 50 μL DMSO is then added to each well as solubilizing agent to dissolve the formazan crystals completely. The absorbance at the wavelength of 570 nm is measured by iMark Microplate Absorbance Spectrophotometer, and each data point represents the means±SD from triplicate wells.

[1] = Biodistribution of AF750-labeled agents in normal mice; assay type: in vivo, normal BALB/c mice; conditions: 72 h post-injection, 40 mg/kg intravenously
Description: Biodistribution of Hb-SMCC-DM1 (Prepared using one-step method in Example 5, MDR of 3.0) in normal mice is performed by using normal mice model. Briefly, normal BALB/c mice are injected intravenously with 40 mg/kg of Hb-AF750 and Hb-SMCC-DM1-AF750, respectively, and imaged serially from 2 hour to 72 hour post-injection. The mice are sacrificed at 72 hour of drug administration to collect various kinds of organ for imaging.

[2] = Preliminary repeat-dose toxicity in normal mice; assay type: in vivo; conditions: weekly, four IV doses, BALB/c mice
Description: The toxicity of Hb-SMCC-DM1 with an (Prepared using one-step method in Example 5, MDR of 3.0) is evaluated in repeat-dose study in normal BALB/c mice. Briefly, mice (n=3, females/group) are administered with unconjugated-DM1 and Hb-SMCC-DM1 weekly for a total of four IV doses at PBS, 2.5 mg/kg of unconjugated-DM1, and 42, 84, 126, and 168 mg/kg of Hb-SMCC-DM1, respectively. Body weights are recorded at every 3 days.

| Compound | IC50 (cancer cell lines) [µM] | location of fluorescence signal (biodistribution) [1] | tolerated dose [2] |
| --- | --- | --- | --- |
| hemoglobin | > 10 | mainly in liver and kidney |  |
| COc1cc2cc(c1Cl)N(C)C(=O)C[C@H](OC(=O)[C@H](C)N(C)C(=O)CCS)[C@]1(C)O[C@H]1[C@H](C)[C@@H]1C[C@@](O)(NC(=O)O1)[C@H](OC)/C=C/C=C(\C)C2 [unconjugated-DM1, mertansine (DM1)] |  |  | up to 2.5 mg/kg |
